Results taken from ChEMBL document CHEMBL5465560, “Selectivity Literature for EUbOPEN Chemogenomic Library” (2024).
Each block holds one compound with its values, some of them ahead of it.

Tests used:
[1] = target: Serine/threonine-protein kinase Nek6 (Homo sapiens) (UniProt Q9HC98); assay: Selectivity interaction (ActivX KiNativ screen (kinase selectivity in THP-1 cell lysates)) EUB0000639a NEK6; assay type: subcellular; settings: lysate
[2] = target: Serine/threonine-protein kinase 16 (Homo sapiens, UniProt O75716); assay: Selectivity interaction (Kinase panel (Invitrogen)) EUB0000639a STK16; settings: at 200 nM
Chain of Serine/threonine-protein kinase 16 (O75716 whole entry): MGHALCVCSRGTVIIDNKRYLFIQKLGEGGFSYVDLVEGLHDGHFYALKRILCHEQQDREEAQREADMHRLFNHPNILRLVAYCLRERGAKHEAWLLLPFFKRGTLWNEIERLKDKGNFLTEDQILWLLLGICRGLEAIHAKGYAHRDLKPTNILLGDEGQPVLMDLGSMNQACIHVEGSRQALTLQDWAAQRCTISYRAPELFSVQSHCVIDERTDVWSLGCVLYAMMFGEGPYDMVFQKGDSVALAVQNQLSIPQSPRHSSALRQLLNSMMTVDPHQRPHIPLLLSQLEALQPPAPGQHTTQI

[3] = target: Tyrosine-protein kinase ABL1 (Homo sapiens, UniProt P00519); assay: Selectivity interaction (Kinase panel (Enzyme activity assay)) EUB0000612a ABL1
Chain of Tyrosine-protein kinase ABL1 (P00519 whole entry): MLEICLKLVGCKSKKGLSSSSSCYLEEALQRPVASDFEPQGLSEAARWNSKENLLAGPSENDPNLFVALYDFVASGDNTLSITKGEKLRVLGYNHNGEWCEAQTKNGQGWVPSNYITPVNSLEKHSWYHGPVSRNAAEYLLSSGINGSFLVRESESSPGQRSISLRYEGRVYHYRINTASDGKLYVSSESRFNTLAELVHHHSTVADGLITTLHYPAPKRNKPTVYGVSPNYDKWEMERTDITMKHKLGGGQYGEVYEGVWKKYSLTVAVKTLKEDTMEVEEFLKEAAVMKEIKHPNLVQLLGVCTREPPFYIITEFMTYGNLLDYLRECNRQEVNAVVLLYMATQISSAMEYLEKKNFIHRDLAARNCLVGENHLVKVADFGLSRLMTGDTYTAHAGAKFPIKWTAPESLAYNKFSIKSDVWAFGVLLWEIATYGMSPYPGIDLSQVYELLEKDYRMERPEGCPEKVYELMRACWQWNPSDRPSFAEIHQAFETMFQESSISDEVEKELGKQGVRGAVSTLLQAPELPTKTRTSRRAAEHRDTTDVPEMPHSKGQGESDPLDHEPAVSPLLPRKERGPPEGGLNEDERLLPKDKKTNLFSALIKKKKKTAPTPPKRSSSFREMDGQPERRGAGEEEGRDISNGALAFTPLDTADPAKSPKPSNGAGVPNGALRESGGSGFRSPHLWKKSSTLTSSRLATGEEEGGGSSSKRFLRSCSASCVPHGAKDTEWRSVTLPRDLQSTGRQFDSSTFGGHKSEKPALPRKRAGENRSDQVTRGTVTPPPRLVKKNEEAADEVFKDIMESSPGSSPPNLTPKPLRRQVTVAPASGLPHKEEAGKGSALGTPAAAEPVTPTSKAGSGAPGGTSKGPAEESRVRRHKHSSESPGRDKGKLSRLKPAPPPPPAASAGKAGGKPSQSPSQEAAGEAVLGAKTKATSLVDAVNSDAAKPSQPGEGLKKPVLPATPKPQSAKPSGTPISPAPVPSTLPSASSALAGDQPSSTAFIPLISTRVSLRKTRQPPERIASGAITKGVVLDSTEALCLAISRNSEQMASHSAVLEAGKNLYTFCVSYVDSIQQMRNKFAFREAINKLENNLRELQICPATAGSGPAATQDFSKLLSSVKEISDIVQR

[4] = target: T1, Cytoplasmic tyrosine-protein kinase BMX (Homo sapiens) (UniProt P51813); assay: Selectivity interaction (Upstate Kinase Profiler service (Millipore)) EUB0000056c BMX; settings: at 1 µM
T1 sequence (whole entry): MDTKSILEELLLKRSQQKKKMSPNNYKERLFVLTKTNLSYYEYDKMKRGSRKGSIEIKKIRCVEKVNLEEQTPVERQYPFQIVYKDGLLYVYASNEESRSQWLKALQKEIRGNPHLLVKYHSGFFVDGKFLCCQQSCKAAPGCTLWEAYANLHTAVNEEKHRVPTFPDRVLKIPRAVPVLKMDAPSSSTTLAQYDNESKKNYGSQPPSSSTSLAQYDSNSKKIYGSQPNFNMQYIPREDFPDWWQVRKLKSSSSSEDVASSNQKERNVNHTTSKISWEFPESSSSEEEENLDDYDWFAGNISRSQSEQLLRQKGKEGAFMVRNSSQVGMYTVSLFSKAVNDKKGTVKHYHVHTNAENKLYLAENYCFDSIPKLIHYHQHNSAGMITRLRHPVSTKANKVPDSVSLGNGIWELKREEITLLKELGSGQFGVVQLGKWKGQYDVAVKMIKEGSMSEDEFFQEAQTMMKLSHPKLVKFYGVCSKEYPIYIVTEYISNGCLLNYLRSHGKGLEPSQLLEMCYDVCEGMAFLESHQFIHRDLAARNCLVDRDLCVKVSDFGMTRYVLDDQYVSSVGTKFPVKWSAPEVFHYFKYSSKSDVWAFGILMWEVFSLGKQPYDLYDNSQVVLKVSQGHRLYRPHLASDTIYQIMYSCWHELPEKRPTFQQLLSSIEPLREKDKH

[5] = target: Tyrosine-protein kinase Yes (Homo sapiens) (UniProt P07947); assay: Selectivity interaction (KinomeScan (DiscoverX)) EUB0000655a YES1; settings: at 10 µM
Chain of Tyrosine-protein kinase Yes (Homo sapiens) (P07947 2-543 limits assumed): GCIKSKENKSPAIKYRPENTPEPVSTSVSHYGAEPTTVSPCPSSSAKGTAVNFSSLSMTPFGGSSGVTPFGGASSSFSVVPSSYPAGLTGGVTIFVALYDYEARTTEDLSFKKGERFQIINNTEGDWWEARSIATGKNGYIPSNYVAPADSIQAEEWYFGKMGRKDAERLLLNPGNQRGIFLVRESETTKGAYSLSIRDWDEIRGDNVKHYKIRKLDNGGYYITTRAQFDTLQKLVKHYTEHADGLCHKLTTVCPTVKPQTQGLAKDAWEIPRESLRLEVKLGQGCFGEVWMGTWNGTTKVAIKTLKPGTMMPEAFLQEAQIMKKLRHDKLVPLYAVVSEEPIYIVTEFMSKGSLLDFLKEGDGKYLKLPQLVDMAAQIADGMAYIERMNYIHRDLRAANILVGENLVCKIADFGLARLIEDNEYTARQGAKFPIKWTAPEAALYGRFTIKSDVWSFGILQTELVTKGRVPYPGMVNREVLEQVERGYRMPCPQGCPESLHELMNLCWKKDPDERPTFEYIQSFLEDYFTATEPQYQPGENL

[6] = target: T2, SNF-related serine/threonine-protein kinase (Homo sapiens) (UniProt Q9NRH2); assay: Selectivity interaction (Kinase panel (KiNativ target engagement assay in Jurkat cells)) EUB0001635a SNRK; assay type: cell-based; settings: at 1 µM
T2 sequence (whole entry): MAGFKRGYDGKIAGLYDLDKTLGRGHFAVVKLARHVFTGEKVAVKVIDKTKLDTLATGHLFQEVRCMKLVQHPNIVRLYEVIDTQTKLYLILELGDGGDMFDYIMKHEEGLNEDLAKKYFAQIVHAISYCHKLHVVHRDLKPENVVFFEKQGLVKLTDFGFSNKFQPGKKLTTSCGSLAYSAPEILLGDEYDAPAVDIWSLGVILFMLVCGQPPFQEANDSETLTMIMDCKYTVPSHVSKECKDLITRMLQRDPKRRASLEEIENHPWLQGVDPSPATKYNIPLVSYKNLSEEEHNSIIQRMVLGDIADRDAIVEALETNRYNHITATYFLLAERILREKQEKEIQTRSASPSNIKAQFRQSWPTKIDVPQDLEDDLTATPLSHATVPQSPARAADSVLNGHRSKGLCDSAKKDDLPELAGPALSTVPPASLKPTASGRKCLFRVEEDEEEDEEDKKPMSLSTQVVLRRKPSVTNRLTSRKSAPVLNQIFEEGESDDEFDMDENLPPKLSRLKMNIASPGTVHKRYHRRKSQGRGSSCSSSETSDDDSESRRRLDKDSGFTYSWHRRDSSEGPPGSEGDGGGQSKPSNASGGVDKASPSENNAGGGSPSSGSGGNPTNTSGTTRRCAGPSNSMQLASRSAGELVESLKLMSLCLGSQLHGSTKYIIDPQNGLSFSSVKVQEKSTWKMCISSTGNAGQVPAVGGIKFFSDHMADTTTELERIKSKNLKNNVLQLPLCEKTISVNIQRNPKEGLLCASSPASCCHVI

[7] = target: Proto-oncogene tyrosine-protein kinase receptor Ret (Homo sapiens, UniProt P07949); assay: (§1) Selectivity interaction (KinomeScan (DiscoverX)) EUB0000666a RET; settings: at 10 µM
Chain of Proto-oncogene tyrosine-protein kinase receptor Ret (P07949 whole entry): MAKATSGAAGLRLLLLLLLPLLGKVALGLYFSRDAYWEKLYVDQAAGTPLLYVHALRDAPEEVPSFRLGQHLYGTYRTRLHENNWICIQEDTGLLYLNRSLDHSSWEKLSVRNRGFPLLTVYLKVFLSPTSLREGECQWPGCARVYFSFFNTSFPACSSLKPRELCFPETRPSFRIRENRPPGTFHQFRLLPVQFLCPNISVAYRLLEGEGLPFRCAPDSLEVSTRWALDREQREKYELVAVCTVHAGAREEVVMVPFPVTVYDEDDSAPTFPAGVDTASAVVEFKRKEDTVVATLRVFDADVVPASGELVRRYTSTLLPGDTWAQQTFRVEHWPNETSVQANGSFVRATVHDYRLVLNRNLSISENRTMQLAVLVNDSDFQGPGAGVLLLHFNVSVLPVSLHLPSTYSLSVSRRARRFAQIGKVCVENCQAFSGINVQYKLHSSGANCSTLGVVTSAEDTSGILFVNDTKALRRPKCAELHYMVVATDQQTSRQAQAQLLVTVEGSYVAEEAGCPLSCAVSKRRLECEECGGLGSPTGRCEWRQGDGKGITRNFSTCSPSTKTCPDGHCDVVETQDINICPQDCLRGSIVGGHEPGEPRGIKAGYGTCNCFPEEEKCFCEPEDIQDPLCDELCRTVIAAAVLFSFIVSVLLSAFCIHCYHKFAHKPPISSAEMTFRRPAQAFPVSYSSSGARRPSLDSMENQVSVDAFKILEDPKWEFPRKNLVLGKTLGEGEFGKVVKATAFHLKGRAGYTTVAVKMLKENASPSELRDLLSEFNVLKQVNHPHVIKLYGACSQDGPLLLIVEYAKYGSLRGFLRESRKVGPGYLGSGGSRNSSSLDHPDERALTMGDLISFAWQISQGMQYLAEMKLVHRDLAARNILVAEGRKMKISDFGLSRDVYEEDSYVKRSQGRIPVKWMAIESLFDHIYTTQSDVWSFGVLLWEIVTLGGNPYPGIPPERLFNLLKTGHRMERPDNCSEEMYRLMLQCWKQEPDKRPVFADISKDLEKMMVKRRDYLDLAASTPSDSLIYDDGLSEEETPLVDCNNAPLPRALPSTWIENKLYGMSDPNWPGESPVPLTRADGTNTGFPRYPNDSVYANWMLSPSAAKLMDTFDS

[8] = tested on: Proto-oncogene tyrosine-protein kinase receptor Ret (Homo sapiens), P07949 [V804M]; assay: as §1; settings: at 10 µM
Chain of Proto-oncogene tyrosine-protein kinase receptor Ret (Homo sapiens), P07949 [V804M] (P07949 whole entry V804M): as the sequence (P07949 whole entry) above, with V804M counted along it

[9] = tested on: Proto-oncogene tyrosine-protein kinase receptor Ret (Homo sapiens), P07949 [M918T]; assay: as §1; settings: at 10 µM
Chain of Proto-oncogene tyrosine-protein kinase receptor Ret (Homo sapiens), P07949 [M918T] (P07949 whole entry M918T): as the sequence (P07949 whole entry) above, with M918T counted along it

[10] = tested on: Proto-oncogene tyrosine-protein kinase receptor Ret (Homo sapiens), P07949 [V804L]; assay: as §1; settings: at 10 µM
Chain of Proto-oncogene tyrosine-protein kinase receptor Ret (Homo sapiens), P07949 [V804L] (P07949 whole entry V804L): as the sequence (P07949 whole entry) above, with V804L counted along it

Chain of Serine/threonine-protein kinase Nek6 (Homo sapiens) (Q9HC98 whole entry): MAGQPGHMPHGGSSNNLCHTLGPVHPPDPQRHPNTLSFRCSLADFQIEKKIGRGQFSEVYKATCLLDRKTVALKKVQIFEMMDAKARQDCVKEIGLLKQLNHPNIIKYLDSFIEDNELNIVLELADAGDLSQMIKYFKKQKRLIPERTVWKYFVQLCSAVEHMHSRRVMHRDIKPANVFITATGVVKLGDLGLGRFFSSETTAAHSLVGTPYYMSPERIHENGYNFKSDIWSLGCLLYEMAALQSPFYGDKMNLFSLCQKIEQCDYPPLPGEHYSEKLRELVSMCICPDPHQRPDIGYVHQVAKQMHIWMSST

Compound: CCc1cccc(CC)c1NC(=O)c1nn(C)c2c1CCc1cnc(Nc3ccc(C(=O)NC4CCN(C)CC4)cc3OC(F)(F)F)nc1-2
IC50 [3]: > 10 µM

Compound: CN(C)CCOc1ccc(-c2nc(-c3ccncc3)c(-c3ccc4c(c3)CC/C4=N\O)[nH]2)cc1
% of control [5]: 100%

Compound: C=CC(=O)Nc1ccc(C(=O)Nc2[nH]nc3c2CN(C(=O)N[C@H](CN(C)C)c2ccccc2)C3(C)C)cc1
% of engagement ([6]; Selectivity number of off-targets 0.0, Selectivity number of targets 233.0, Source Knowledge https://www.sciencedirect.com/science/article/pii/S2451945619300674?via%3Dihub): 6.9%
% of engagement [6]: 30.4%

Compound: O=C(NOC[C@H](O)CO)c1ccc(F)c(F)c1Nc1ccc(I)cc1F
% of control [7]: 90%
% of control [8]: 100%
% of control [9]: 79%
% of control [10]: 93%

Other lines, results leading:

% of inhibition ([1]; at 0.01 µM): -2.2%
% of inhibition ([1]; at 0.04 µM): 1.5%
% of inhibition ([1]; at 0.2 µM): -2.2%
% of inhibition ([1]; at 1 µM): 2%
% of inhibition ([1]; at 5 µM): -1.4%
% of inhibition [2]: 14.2%
Compound: CC[C@@H]1[C@H](F)C(=O)N[C@@H]1COc1nccc2cc(C(N)=O)c(OC)cc12 [ZIMLOVISERTIB]

% of inhibition [4]: 4%
Compound: Cc1ccc(-c2ccc3c(ccc4sc5c(c43)NC[C@@H](C)NC5=O)n2)cn1
